melting point [°C] | SMILES
80 | O=S(CCCCCCOc1ccc(C2=C(c3ccccc3)CCCc3cc(O)ccc32)cc1)Cc1ccccn1 (centres undefined)
189 to 191 | N#CN1C(=O)c2ccccc2C1=O
177 to 179 | CSc1ncnc2c(N3CCSCC3)nc(N3CCNCC3)nc12
102 to 108 | OCC1OC(n2cnc3c(NCCCC(c4ccccc4)c4ccccc4)ncnc32)C(O)C1O (centres undefined)
126 to 127 | O=c1c(-c2ccc(Cl)cc2)c(CCC2CC2)nc2ccccn12
130 to 140 | CON(C)C(=O)[C@H]1CC[C@H](NC(=O)OC(C)(C)C)CC1
188 to 192 | CCOC(=O)c1cnc(N(CC)Cc2ccc3nc(C)[nH]c(=O)c3c2)s1
95 | COC(=O)C(=O)C(CCCc1ccccc1)CS(=O)(=O)c1ccc(OC)cc1 (centres undefined)
142 | O=C1CCC(=O)N1CCCCCNC(=O)n1cc(F)c(=O)[nH]c1=O
113 to 115 | COc1ccc(N2CCN(c3c(C)c(C)c4c(c3C)C(O)(c3ccccn3)C(C)(C)O4)CC2)cc1 (centres undefined)
290 to 295 | O=C1NC(=O)c2c1c(-c1ccccc1)cc1c2c2cc(O)ccc2n1CC(O)CO (centres undefined)
176 to 178 | O=C(O)c1ccc(CCCC2SCC(=O)N2CCC2(O)C3CCCC2CCC3)cc1 (centres undefined)
80 to 81 | CCCCOc1ccc(S(=O)(=O)N2CCC(OS(C)(=O)=O)C2)cc1 (centres undefined)
139 to 141 | COc1cc(C)cc(C(O)=S)c1OC
172 to 174 | O=C(O)Cc1csc(-c2cccc(O)c2)n1
112 | CN1C(=O)CN(c2ccccc2)C1=S
126 to 129 | COc1c2occc2c(OC)c2c(=O)cc(N3CCC(C4CCN(c5cc(=O)c6c(OC)c7ccoc7c(OC)c6o5)CC4)CC3)oc12
104 to 106 | COc1cccc(Cc2cnc(NCCSCc3nccs3)[nH]c2=O)c1
297 to 298 | Cc1ccc(-n2c(-c3ccc(C=Cc4ccccc4)cc3)ccc2-c2ccc(C=Cc3ccccc3)cc2)cc1
159 to 160 | Cc1nc(-c2ccc(Cl)cc2)sc1C(=O)N[C@H](C)[C@](O)(Cn1cncn1)c1ccc(F)cc1F
157 to 159 | CC(C)[C@H](NC(=O)Cc1csc(N(C)C)n1)C(=O)N[C@@H](Cc1ccccc1)[C@@H](O)C[C@H](Cc1ccccc1)NC(=O)OCc1cncs1
195 to 197 | Cc1nc2nc(C(F)(F)F)cc(-c3cccnc3)n2n1
178 to 180 | O=C(O)c1cccc(NC(=O)C(CS)Cc2ccccc2)c1 (centres undefined)

melting point [°C] | SMILES
67 to 68 | Cc1nc(CNC=O)ccc1OCc1ccccc1
239 to 241 | COC(=O)c1cc(Cl)cc2c1OCC(=O)N2
186 to 187 | O=C(O)CCC1c2ccccc2C(=O)N1c1ccccc1 (centres undefined)
68 to 74 | COC(=O)c1ccc(OCCNC(=O)C2Cc3ccccc3N2S(=O)(=O)c2ccc(-c3cccc(C(F)(F)F)c3)cc2)c(C)c1 (centres undefined)
207 to 208 | CN(C)CC(=O)N1c2ccccc2N(C)C(=O)c2cnc(-c3ccccc3)nc21
164 | CCOC(=O)CC(=Cn1cc[nH]c1=O)c1ccc(OC)c(OC2CCCC2)c1
63.5 to 65.9 | O=C1SC(Cc2ccc(OCCn3ccc4ccccc43)cc2)C(=O)N1C(c1ccccc1)(c1ccccc1)c1ccccc1 (centres undefined)
159 to 162 | O=C(NS(=O)(=O)Cl)Oc1c(-c2ccccc2)cccc1-c1ccccc1
92 | O=C(O)Cc1ccc(OCCNC(=O)C2Cc3ccccc3N2S(=O)(=O)c2ccc(-c3ccc(Cl)cc3)c(C(F)(F)F)c2)cc1 (centres undefined)
64 to 67 | O=C(O)COCC(=O)CCCCCCCCCC(=O)NONC(=O)O
128 | CCC1(CO)COC2(CC(c3ccccc3)SC(c3ccccc3)C2)OC1 (centres undefined)
208 | COc1ccc(S(=O)(=O)C2(C(=O)O)CCN(CCc3ccccc3)CC2)cc1
85 to 86 | CCCc1nnc(CCc2cc(OCc3ccc(OCc4nc(-c5ccccc5)oc4C)c(OC)c3)nn2-c2ccccc2)o1
210 to 212 | CCN1C(=O)CCCc2ccc(Nc3ncc(Cl)c(Nc4c(C)cccc4C(=O)NC)n3)cc21
220 to 222 | CCC(O)c1ccc(Cl)c2nc3n(c12)CCCN3c1ccc(Cl)cc1C(F)(F)F (centres undefined)
104 to 106 | CCC(=O)Oc1ccc(C(=O)CC)cc1F
214 to 216 | Cc1nc(O)c(F)c(Cl)n1
150 | CCOP(=O)(OCC)c1ccc(Oc2ccccc2[N+](=O)[O-])cc1
266 to 268 | COc1cc(C=C2NC(=O)NC2=O)cc(OC)c1OC
175 to 176 | O=C(O)[C@@H]1C[C@H](C2CCCCC2)CN1C(=O)CP(=O)(O)CCCCc1ccccc1
143 to 145 | CCOc1cc2ncc(C#N)c(Nc3ccc4cn[nH]c4c3)c2cc1OCC
207 to 210 | Cc1cc(Cl)ccc1N1C(=O)c2ccc(Br)cc2C1=O
125 to 127 | C[Si](C)(Cc1ccc(N(c2ccccc2)c2ccccc2)cc1)Cc1ccc(N(c2ccccc2)c2ccccc2)cc1

melting point [°C] | SMILES
151 to 152 | O=c1nc(-c2cccc(CSc3ccccn3)n2)sc2ccccc12
205 | Cn1cc(C=O)c(=O)c2cc(C(F)(F)F)ccc21
84 to 85 | N#CCCOc1ccc(F)cc1
172 | CC1(C)C=CC(=Cc2ccc(F)cc2)C1(O)Cn1ccnc1 (centres undefined)
237 to 239 | COc1cc(C(=O)c2sc(NC(=O)c3ccncc3)nc2-c2ccco2)ccn1
139 to 141 | O=C(NS(=O)(=O)NC(=O)OCc1ccccc1)OCc1ccccc1
102 to 105 | CCOCCc1ccc(OCC=NO)c(C)c1C
137 to 139 | COc1cccc(N2CCN(c3ccc(S(=O)(=O)N[C@@H](Cc4ccccc4)C(=O)O)cc3)CC2)c1
291 to 295 | CCCn1cc2c(C3C(=O)Nc4ccc(C#N)cc43)nc(NCc3cccnc3)nc2n1 (centres undefined)
112 to 115 | CCOC(=O)c1ccc(-c2ccc(-c3ccc(OC)cc3)c(-c3ccc4c(c3)C(C)(C)CCC4(C)C)c2)cc1
130 | O=C(Cn1ccnc1)C12CC3CC(CC(C3)C1)C2
108 to 110 | CCCC(=NOCC)C1=C(O)CC2(CSCCSC2)OC1=O
255 to 256 | CN(c1cccc2cc(-c3ncc(CCc4n[nH]c(=O)o4)s3)[nH]c12)S(=O)(=O)c1cccs1
206 to 218 | CC(Cc1c[nH]c2ccccc12)(NC(=O)OC12CC3CC(CC(C3)C1)C2)C(=O)O (racemic)
213 to 216 | O=C(NC(=O)c1c(F)cccc1Cl)Nc1ccc(S(=O)C(F)(F)C(F)F)cc1F (centres undefined)
110 | Cc1nc(Sc2ccc([N+](=O)[O-])cc2)nc(C)c1Cl
153 to 155 | COC(=O)c1cn(-c2ccccc2Oc2ccc(C)cc2O)nn1
246 | CCCCN1CC(=O)N2[C@@H](c3ccc(NC(C)=O)cc3)c3[nH]c4ccccc4c3C[C@@H]2C1=O (relative stereo)
70 to 73 | Cc1ccc(C(C)(C)C)c(SC2=C(O)CC(CCc3ccccc3)(c3ccc(OCCO)cc3)OC2=O)c1 (centres undefined)
153 | COC(=O)c1ccc2cc([C@H]3OC[C@@H](S[C@H](C)[C@](O)(Cn4cncn4)c4ccc(F)cc4F)CO3)ccc2c1
154 to 155 | CCN1C(=O)OC(C)(C)c2cc(-c3cc(F)cc(C#N)c3)ccc21
85 to 86 | Cc1c(C)c2c(c(C)c1N)CC(C)(CN1CCC(OCc3ccccc3)CC1)O2 (centres undefined)
103 to 105 | CCOCc1oc(-c2ccc(C(F)(F)F)cc2)cc1C(=O)OCC

melting point [°C] | SMILES
69 to 70 | COC(=O)c1ccccc1Oc1ccc(C(F)(F)F)cc1[N+](=O)[O-]
251 to 253 | CCCc1nc2ccccc2c(=O)n1Cc1ccc(-c2ccccc2-c2nc(=O)o[nH]2)cc1
239 to 241 | CCOC(=O)c1cn(C2CC2)c2cc(-c3cc(C(F)(F)F)nc(C(F)(F)F)c3)c(F)cc2c1=O
142 to 144 | O=C(Nc1ccc(OCCN2CCOCC2)c2ccccc12)c1cc(F)cc(N2CCCCCC2)c1
207 to 209 | Nc1ncnc2c1ncn2Cc1oc2ccc(Br)cc2c(=O)c1-c1ccccc1
150 to 151 | COc1ccc(N/C=C2\C(=O)NC(=O)c3ccccc32)cc1
98 to 99 | Cc1c(NCc2ccccc2)c2c(c3c1C(c1ccc(C(C)C)cc1)CO3)CCCC2 (centres undefined)
188 to 189 | COc1ccc2c3c([nH]c2c1)C(=S)C(CC1CCN(C(=O)OC(C)(C)C)CC1)C3 (centres undefined)
230 to 235 | CC1(C)Oc2ccc(C(N)=O)cc2C(c2cccn(Cc3ccccc3)c2=O)C1O (centres undefined)
208 to 209 | O=C(NCc1ccc(F)c(F)c1)c1cc(-n2cnn(Cc3ccc(F)cc3)c2=O)n[nH]1
181 to 183 | Cc1cc(Nc2ccc(Cl)cc2)nc(-n2nc(C)cc2C)n1
166 to 168 | COc1c(C#N)c2c(c3c1OC(C)(C)C3)C(c1ccccc1)=NC(C)(C)C2
137 to 139 | O=C(O)C(O)c1ccccc1[N+](=O)[O-] (centres undefined)
167 to 170 | CCOC(=O)c1ccc(C=C(CCCc2ccc(C(=O)O)cc2)Cn2ccnc2)cc1
158 to 160 | CN(CCO)c1nccc(NC(N)=NCC(F)(F)F)n1
201 to 203 | CCCc1nc2c(N)nc3ccccc3c2n1CC1(O)CCOC1 (centres undefined)
50 to 56 | Cc1cc(-c2cccc(C(=O)CC(=O)OC(C)(C)C)c2)on1
120 to 124 | CS(=O)(=O)c1cc(CBr)ccc1Br
101 to 103 | CCOC(=O)C(C1c2ccccc2C=Cc2ccccc21)[N+](=O)[O-] (centres undefined)
138 to 140 | Cc1nc(-c2ccc(-c3ccc(C(=O)Nc4ccc(Br)c(OCCN(C)C)c4)cc3)c(C)c2)no1
145 to 148 | Cc1nc2c(C=O)cccn2c1C

SMILES | melting point [°C]
CC(C)N(Cc1nc(-c2ncn3c2CN(C)C(=O)c2c-3ccc(F)c2Cl)no1)C(C)C | 153 to 156
CCN(CC)CCn1cc2c(c1)-c1ccc(Cl)cc1C(c1ccccc1Cl)=NC2 | 130 to 131
CN(C)C1(c2cccc(F)c2)CCC(=O)CC1 | 83 to 88
COc1cc([N+](=O)[O-])c(Cl)cc1NC(=O)C1CCNCC1 | 167 to 170
